pIC50: −log10 of the molar value.
Molecular target: Cx50 (Mus musculus, UniProt P28236)
Format: biochemical

Cx50, sequence (P28236 2-440): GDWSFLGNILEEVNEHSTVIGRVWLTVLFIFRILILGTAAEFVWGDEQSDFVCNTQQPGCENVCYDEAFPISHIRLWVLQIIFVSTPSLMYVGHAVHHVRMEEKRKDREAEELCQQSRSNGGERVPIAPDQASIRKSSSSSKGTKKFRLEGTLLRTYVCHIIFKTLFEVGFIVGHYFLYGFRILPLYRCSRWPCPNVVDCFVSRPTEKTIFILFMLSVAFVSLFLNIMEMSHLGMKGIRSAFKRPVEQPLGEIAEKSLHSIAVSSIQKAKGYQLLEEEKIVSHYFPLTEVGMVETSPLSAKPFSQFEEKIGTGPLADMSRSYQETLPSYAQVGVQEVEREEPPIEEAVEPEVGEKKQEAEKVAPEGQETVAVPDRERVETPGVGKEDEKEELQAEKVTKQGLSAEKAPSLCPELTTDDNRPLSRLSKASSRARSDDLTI

With `C=C[C@H]1C[N+]2(Cc3ccccc3)CC[C@H]1C[C@H]2[C@H](O)c1ccnc2ccc(OC)cc12` [BQ+, N-benzylquininium] as the molecule, how does the pIC50 read?
The pIC50 was 3.47.

Source: paper PMC3250100 (The Journal of General Physiology, 2012)
